Measurements as given in US4859693A, “Antiinflammatory carbinoloimidazoles” (E. I. Du Pont de Nemours and Company, priority 1988, dated 1989).

test system: inflammation induced by tetradecanoyl phorbol acetate (TPA); assay: TPA model: inflammation (ear edema) induced by tetradecanoyl phorbol acetate in mice; format: in vivo; conditions: 100 μg/ear topical, mouse ear, TPA stimulus, edema measured four hours later
Source text: One such model is the inflammation induced by tetradecanoyl phorbol acetate (TPA). The test methods are modified from those of Marks et al. (Cancer Res, 36, p. 2636, 1976). The TPA model is a murine model which mimics many of the inflammatory changes which occur in human disease such as psoriasis. In this model, elevated levels of inflammatory arachidonic acid metabolites are found, and an influx or polymorphonuclear leukocytes (PMN) is observed. The procedure used to evaluate the compounds of this invention is as follows: the test compound (100 μg/ear) is applied to the ears of mice in an appropriate vehicle, such as acetone, and then the inflammatory stimulus is applied to the right ear. Four hours later, the edema is measured by removing standard sized discs from the mouse ears using a biopsy punch. The masses of the discs are then determined.

| SMILES | % Inhibition of Control Inflammation |
| --- | --- |
| CCC(n1ccnc1)C(O)(c1ccc(F)cc1)c1ccc(F)cc1 (racemic) [Example 3a, 1,1-bis(4-fluorophenyl)-2-(1-imidazolyl)butanol] | 40% |
| OC(CCCn1ccnc1)(c1ccc(F)cc1)c1ccc(F)cc1 [Example 1a, 1,1-bis(4-fluorophenyl)-4-(1-imidazolyl)butanol] | 31% |
| OC(Cn1ccnc1)(c1ccc(F)cc1)c1ccc(Br)cc1 (centres unmarked) [Example 2b, 1-(4-fluorophenyl)-1-(4-bromophenyl)-2-(1-imidazolyl)-ethanol] | 41% |
| CC(n1ccnc1)C(O)(c1ccc(F)cc1)c1ccc(F)cc1 (centres unmarked) [Example 3b] | 40% |
| CCCC(n1ccnc1)C(O)(c1ccc(F)cc1)c1ccc(F)cc1 (centres unmarked) [Example 3c] | 30% |
| CC(n1ccnc1)C(O)(c1ccc(Cl)cc1)c1ccc(Cl)cc1 (centres unmarked) [Example 3e] | 55% |
| Cc1ccc(C(O)(c2ccc(C)cc2)[C@H](C)n2ccnc2)cc1 [Example 4a, (S)-1,1-bis(4-methylphenyl)-2-(1-imidazolyl)propanol] | 33% |
| C[C@@H](n1ccnc1)C(O)(c1ccc(Cl)cc1)c1ccc(Cl)cc1 [Example 5a, (R)-1,1-bis(4-chlorophenyl)-2-(1-imidazolyl)propanol] | 61% |
